What was measured:
Format in all cases: biochemical
[1] = system: proteolysis in leaf extracts of transgenic alfalfa expressing the red clover PPO1 gene; assay: Proteolysis (amino acid release) in PPO-alfalfa leaf extracts / alfalfa extracts with PPO activity; settings: for inhibition of proteolysis: 3 mM caffeic acid
Protocol: (§1) Clarified extracts of red clover leaves were made in 50 mM MES, pH 6.5 (crude extract in Table 1). Where indicated, extracts were desalted using a Sephadex G-25 spin column equilibrated with 50 mM MES, pH 6.5, to remove low molecular weight molecules (i.e. o-diphenols). Extract protein concentrations were adjusted to 2 mg/ml with buffer. Where indicated, the o-diphenol in the form of caffeic acid (CA) was added to a final concentration of 3 mM. Extracts were incubated at 37° C. At the indicated times, samples were removed, trichloroacetic acid (TCA) added to 5%, and release of free amino acids (a measure of proteolytic activity) into the TCA-soluble supernatant was determined by ninhydrin assay. Data are the average of three experiments using independent tissue samples ±standard error.
(§2) Proteolysis was measured in leaf extracts essentially as described in Experiment 1 above. The o-diphenol in the form of caffeic acid was added to 3 mM caffeic acid. Data are the average of three experiments using independent tissue samples ±standard error.
(§3) Proteolysis after a four hour incubation at 37° C. was measured essentially as described for Experiment 1 above in leaf extracts of either transgenic alfalfa expressing the red clover PPO1 gene (PPO-alfalfa) or control-alfalfa not expressing an exogenous PPO gene (control-alfalfa) using the o-diphenol in the form of caffeic acid at various concentrations up to 10 mM. Data are the average of three experiments using independent tissue samples ±standard error.
(§4) Proteolysis in the reaction mixtures following a four hour incubation at 37° C. was measured essentially as described above for reaction mixture with and without caffeic acid added to 3 mM (+CA and −CA, respectively). Data are the average of three experiments using independent tissue samples ±standard error.
(§5) Proteolysis after a four hour incubation at 37° C. was measured (as described in Example 1 above) of alfalfa for reaction mixtures containing either 250 mU/ml PPO activity (protein adjusted to 2 mg/ml with control alfalfa extract) or a control alfalfa extract (2 mg/ml protein). Various o-diphenols were present in the reaction mixtures at 3 mM, including caffeic acid (CA) hydrocaffeic acid (HCA), chlorogenic acid (CGA), catechol, and (−)-epicatichin.

[2] = system: proteolysis in control-alfalfa leaf extracts (no PPO transgene); assay: Proteolysis (amino acid release) in control-alfalfa leaf extracts
Protocol: as §1, §2, §3, §4, §5

[3] = system: polyphenol oxidase (PPO), red clover PPO1 gene product; assay: PPO activity (caffeic acid oxidized per minute, TNB protocol); settings: PPO1 expressed in transgenic alfalfa
Protocol: The o-diphenol compound is applied to forage at a rate ranging from about 5 to about 30 micromoles per gram of fresh weight forage and the oxidase is applied at a rate of about 0.1 to about 1 unit per gram of fresh weight forage. One unit is defined as one micromole of caffeic acid oxidized per minute by the following protocol.
The protocol used to determine activity is carried out at 25° C. The buffer is 20 mM TRIS-acetate pH 7.0. The caffeic acid is 100 mM in ethyl alcohol. […] The decrease in absorbance at 412 nm (TNB) from 2-5 minutes is used to determine PPO activity.
PPO activity present in reaction mixtures was varied from 0 to 500 mU/ml of extract by mixing extracts from PPO- and control-alfalfa (1 U=1 micromole caffeic acid oxidized/min; red clover and PPO-Alfalfa have 0.5-5 U activity/mg protein) to achieve a final protein concentration of 2 mg/ml. Proteolysis in the reaction mixtures following a four hour incubation at 37° C. was measured essentially as described above for reaction mixture with and without caffeic acid added to 3 mM (+CA and −CA, respectively). […]

[4] = system: proteolysis in oat leaf extracts; assay: Proteolysis (amino acid release) in oat leaf extracts; settings: for Mean amino acid release: with 3 mM Caffeic Acid
Protocol: as §1
Proteolysis was measured in oat leaf extracts or oat leaf extracts with PPO activity added (125 mU/ml). The added PPO activity was from an extract of red clover PPO1-expressing alfalfa. […] Total protein was 1.75 mg/ml. In Oat+alfalfa extracts, oat protein was present at 1.4 mg/ml and alfalfa protein was present at 0.35 mg/ml. Caffeic acid was present at 3 mM. Results in Table 6 below are for the average of two experiments using independent tissue samples.

[5] = system: proteolytic activity in red clover leaf extracts; assay: Proteolysis (release of free amino acids, ninhydrin assay) in red clover leaf extracts; settings: desalted red clover extract + 3 mM CA, 37° C.
Protocol: Clarified extracts of red clover leaves were made in 50 mM MES, pH 6.5 (crude extract in Table 1). Where indicated, extracts were desalted using a Sephadex G-25 spin column equilibrated with 50 mM MES, pH 6.5, to remove low molecular weight molecules (i.e. o-diphenols). Extract protein concentrations were adjusted to 2 mg/ml with buffer. Where indicated, the o-diphenol in the form of caffeic acid (CA) was added to a final concentration of 3 mM. Extracts were incubated at 37° C. […] Data are the average of three experiments using independent tissue samples ±standard error.

[6] = PPO-Alfalfa, 250 mU/ml PPO activity, substrate 3 mM, 37° C.
[7] = Control-Alfalfa extract 2 mg/ml protein, substrate 3 mM, 37° C.

In the case of `O=C(O)CCc1ccc(O)c(O)c1` [HCA, hydrocaffeic acid], the “Mean four hour Amino Acid Release” value [1, 6] is reported as 0.25 ± 0.07 µmol/mg and the “Mean four hour Amino Acid Release” value [2, 7] is reported as 0.70 ± 0.07 µmol/mg.

In the case of `Oc1ccccc1O` [Catechol, catechol], the “proteolytic inhibition (in words)” value ([1]; 3 mM, PPO present (250 mU/ml), four hour) is reported as “significant proteolytic inhibition”, the “Mean four hour Amino Acid Release” value [1, 6] is reported as 0.37 ± 0.05 µmol/mg and the “substrate quality for the red clover PPO1 gene product” value [3] is reported as “relatively poor substrate”. For the same compound, the “Mean four hour Amino Acid Release” value [2, 7] was 0.71 ± 0.10 µmol/mg.

With `O=C(/C=C/c1ccc(O)c(O)c1)O[C@@H]1C[C@](O)(C(=O)O)C[C@@H](O)[C@H]1O` [CGA, chlorogenic acid] the “Mean four hour Amino Acid Release” value [1, 6] was 0.26 ± 0.06 µmol/mg and the “Mean four hour Amino Acid Release” value [2, 7] was 0.80 ± 0.06 µmol/mg.

For `Oc1cc(O)c2c(c1)O[C@H](c1ccc(O)c(O)c1)[C@H](O)C2` [Epicatichin, (−)-epicatichin], the “Mean four hour Amino Acid Release” value [1, 6] was 0.25 ± 0.08 µmol/mg and the “Mean four hour Amino Acid Release” value [2, 7] was 0.64 ± 0.08 µmol/mg.

`O=C(O)/C=C/c1ccc(O)c(O)c1` [CA, caffeic acid] was tested, and the “Mean four hour Amino Acid Release” value ([1]; 3 mM Caffeic Acid, PPO 16 mU/ml, protein 2 mg/ml) was 0.36 ± 0.03 µmol/mg, the “Mean four hour Amino Acid Release” value ([1]; 3 mM Caffeic Acid, PPO 32 mU/ml, protein 2 mg/ml) was 0.34 ± 0.05 µmol/mg and the “Mean four hour Amino Acid Release” value ([1]; 3 mM Caffeic Acid, PPO 62.5 mU/ml, protein 2 mg/ml) was 0.21 ± 0.02 µmol/mg. For the same compound, the “Mean four hour Amino Acid Release” value ([1]; 3 mM Caffeic Acid, PPO 125 mU/ml, protein 2 mg/ml) was 0.15 ± 0.03 µmol/mg, the “Mean four hour Amino Acid Release” value ([1]; 3 mM Caffeic Acid, PPO 250 mU/ml, protein 2 mg/ml) was 0.12 ± 0.01 µmol/mg and the “Mean four hour Amino Acid Release” value ([1]; 3 mM Caffeic Acid, PPO 500 mU/ml, protein 2 mg/ml) was 0.06 ± 0.03 µmol/mg. The inhibition of proteolysis ([1]; >125 mU/ml PPO activity, four hour) was over 80%, the inhibition of proteolysis ([1]; PPO activity 16 mU/ml, four hour) was over 50% and the “Mean four hour Amino Acid Release” value [1, 6] was 0.12 ± 0.03 µmol/mg. For the same compound, the “Mean four hour Amino Acid Release” value ([1]; PPO-Alfalfa, caffeic acid 0.5 mM, 37° C.) was 0.32 ± 0.03 µmol/mg, the “Mean four hour Amino Acid Release” value ([1]; PPO-Alfalfa, caffeic acid 1 mM, 37° C.) was 0.25 ± 0.03 µmol/mg and the “Mean four hour Amino Acid Release” value ([1]; PPO-Alfalfa, caffeic acid 2 mM, 37° C.) was 0.16 ± 0.03 µmol/mg. The “Mean four hour Amino Acid Release” value ([1]; PPO-Alfalfa, caffeic acid 3 mM, 37° C.) was 0.11 ± 0.02 µmol/mg, the “Mean four hour Amino Acid Release” value ([1]; PPO-Alfalfa, caffeic acid 4 mM, 37° C.) was 0.08 ± 0.02 µmol/mg and the “Mean four hour Amino Acid Release” value ([1]; PPO-Alfalfa, caffeic acid 5 mM, 37° C.) was 0.06 ± 0.01 µmol/mg. The “Mean four hour Amino Acid Release” value ([1]; PPO-Alfalfa, caffeic acid 10 mM, 37° C.) was 0.04 ± 0.02 µmol/mg, the “proteolytic inhibition compared to extracts to which no caffeic acid was added” value ([1]; caffeic acid 0.5 mM, PPO-alfalfa extract, four hour) was over 50% and the reduction in proteolysis ([1]; caffeic acid 3 mM added to PPO-alfalfa extract) was about 80%. For the same compound, the proteolytic inhibition ([1]; caffeic acid 3 mM, PPO-alfalfa extract, four hour) was over 80%, the “Mean four hour Amino Acid Release” value ([2]; 3 mM Caffeic Acid, PPO 0 mU/ml (control-alfalfa extract), protein 2 mg/ml) was 0.79 ± 0.10 µmol/mg and the “Mean four hour Amino Acid Release” value [2, 7] was 0.75 ± 0.08 µmol/mg. For the same compound, the “Mean four hour Amino Acid Release” value ([2]; Control-Alfalfa, caffeic acid 0.5 mM, 37° C.) was 0.75 ± 0.09 µmol/mg, the “Mean four hour Amino Acid Release” value ([2]; Control-Alfalfa, caffeic acid 1 mM, 37° C.) was 0.69 ± 0.06 µmol/mg and the “Mean four hour Amino Acid Release” value ([2]; Control-Alfalfa, caffeic acid 2 mM, 37° C.) was 0.70 ± 0.07 µmol/mg. For the same compound, the “Mean four hour Amino Acid Release” value ([2]; Control-Alfalfa, caffeic acid 3 mM, 37° C.) was 0.66 ± 0.09 µmol/mg, the “Mean four hour Amino Acid Release” value ([2]; Control-Alfalfa, caffeic acid 4 mM, 37° C.) was 0.75 ± 0.07 µmol/mg and the “Mean four hour Amino Acid Release” value ([2]; Control-Alfalfa, caffeic acid 5 mM, 37° C.) was 0.75 ± 0.11 µmol/mg. For the same compound, the “Mean four hour Amino Acid Release” value ([2]; Control-Alfalfa, caffeic acid 10 mM, 37° C.) was 0.65 ± 0.06 µmol/mg, the effect on proteolysis ([2]; caffeic acid 3 mM added to control alfalfa extracts) was “no significant effect” and the effect on proteolysis ([2]; in the absence of PPO activity, caffeic acid up to 10 mM) was “little effect”. The proteolytic inhibition ([4]; 3 mM caffeic acid with exogenous PPO added (125 mU/ml) to oat extract) was about 50%, the “Mean amino acid release” value ([4]; Oat extract, time 0) was 0.00 ± 0.00 μmol/mg protein and the “Mean amino acid release” value ([4]; Oat extract, time 1) was 0.82 ± 0.18 μmol/mg protein. The “Mean amino acid release” value ([4]; Oat extract, time 2) was 1.39 ± 0.09 μmol/mg protein, the “Mean amino acid release” value ([4]; Oat extract, time 3) was 1.73 ± 0.15 μmol/mg protein and the “Mean amino acid release” value ([4]; Oat extract, time 4) was 1.79 ± 0.07 μmol/mg protein. For the same compound, the “Mean amino acid release” value ([4]; Oat/Control-Alf extract, time 0) was 0.00 ± 0.00 μmol/mg protein, the “Mean amino acid release” value ([4]; Oat/Control-Alf extract, time 1) was 0.75 ± 0.17 μmol/mg protein and the “Mean amino acid release” value ([4]; Oat/Control-Alf extract, time 2) was 1.42 ± 0.06 μmol/mg protein. For the same compound, the “Mean amino acid release” value ([4]; Oat/Control-Alf extract, time 3) was 1.73 ± 0.05 μmol/mg protein, the “Mean amino acid release” value ([4]; Oat/Control-Alf extract, time 4) was 1.91 ± 0.05 μmol/mg protein and the “Mean amino acid release” value ([4]; Oat/PPO-Alf (PPO 125 mU/ml), time 0) was 0.00 ± 0.00 μmol/mg protein. The “Mean amino acid release” value ([4]; Oat/PPO-Alf (PPO 125 mU/ml), time 1) was 0.60 ± 0.20 μmol/mg protein, the “Mean amino acid release” value ([4]; Oat/PPO-Alf (PPO 125 mU/ml), time 2) was 0.80 ± 0.13 μmol/mg protein and the “Mean amino acid release” value ([4]; Oat/PPO-Alf (PPO 125 mU/ml), time 3) was 0.82 ± 0.11 μmol/mg protein. For the same compound, the “Mean amino acid release” value ([4]; Oat/PPO-Alf (PPO 125 mU/ml), time 4) was 1.02 ± 0.22 μmol/mg protein, the “lower proteolysis than counterparts lacking caffeic acid” value ([4]; all oat reactions containing 3 mM CA) was 10-30% and the “release of free amino acids” value ([5]; 0 h) was 0.00 ± 0.00. For the same compound, the “release of free amino acids” value ([5]; 1 h) was 0.04 ± 0.01, the “release of free amino acids” value ([5]; 2 h) was 0.06 ± 0.01 and the “release of free amino acids” value ([5]; 3 h) was 0.09 ± 0.01. For the same compound, the “release of free amino acids” value ([5]; 4 h) was 0.11 ± 0.02.

Source: patent US8338339B2, “Process for inhibition of proteolytic activity during the ensiling of forages” (The United States of America as represented by the …, priority 2003, dated 2012)
